The values that follow come from US8703715B2, “Methods for inhibiting growth of prolactin-responsive cancer cells with cyclosporine a or other cyclophilin inhibitors” (The Trustees of the University of Pennsylvania, priority 2004, dated 2014).

One data set concerns breast cancer cells. The following applies: breast cancer cells in culture.
The conditions of data set [1]: human patients, approved indications (immunosuppressive use); cited from earlier work.

As to cyclosporine A, the “media concentration having profound effects on survival of breast cancer cells” value in the data set on breast cancer cells is at least 20 ng/mL. In data set [1], the Peak serum concentrations was 2 to 8 µg/mL.
